Where “and” joins values, the source holds several entries; their conditions need not be identical. Identical values can stand only once. Like-named read-outs stand apart in the source and are kept apart here.
Tests used:
alkaline phosphatase [1] = target: T1, alkaline phosphatase (Bos taurus, UniProt P19111)
Experimental: Two different dosing concentrations were evaluated, 10 μL of test chemical added to 90 μL of alkaline phosphatase reaction reagent and 50 μL of test chemical added to 50 μL of alkaline phosphatase reaction reagent; all aliquoted in 96-well plates.
• 1. Alkaline phosphatase reaction reagent (fresh, 1:100) • a. Take 4 mL of AP (1:10) stock solution, add to 36 mL PBS. Vortex mix and then invert to mix 10 times • 2. Prepare alkaline phosphatase reaction reagent for every condition • a. 200 μL AP (1:10) in 1.8 mL PBS • b. […] 200 μL AP (1:10) in 1.8 mL Acetone • 3. Prepare 96-well plates for dosing • 4. Prepare 96-well plates for PNPP reading (3 wells for each test chemical) • a. Aliquot with 200 μL PNPP
• 1. Set 1 • a. 10 μL chemical added to 90 μL AP reaction reagent • 2. Set 2 • a. 50 μL chemical added to 50 μL AP reaction reagent • 3. Incubate for 3 hours • a. To the prepared 96-well plate with 200 μL PNPP aliquoted, add 20 μL • b. […] To the prepared 96-well plate with 200 μL PNPP aliquoted, add 20 μL • b.
In our next study, we focused on ethanol and buffered saline (potassium chloride, potassium phosphate monobasic, sodium chloride, sodium phosphate dibasic) as our solvents.
• 1. Alkaline phosphatase reaction reagent • a. 1:100 • i. PBS: Take 400 μL of AP (1:10) stock solution, add to 3.6 mL PBS. Vortex mix and then invert to mix 10 times • ii. […] Vortex mix and then invert to mix 10 times • b. 1:1000 • i. PBS: Take 400 μL of AP (1:100) stock solution, add to 3.6 mL PBS. Vortex mix and then invert to mix 10 times • ii. […] Vortex mix and then invert to mix 10 times • 2. Prepare 0.5 mL microcentrifuge tubes for dosing • a. One set for room temperature, one set for 37° C. • 3. Prepare 96-well plates for PNPP reading (3 wells for each test chemical) • a. Aliquot with 200 μL PNPP
• 1. In each microcentrifuge tube for each condition, add 180 μL of the corresponding AP reaction reagent • 2. Add 20 μL of the test chemical to each microcentrifuge tube • 3. Incubate for 4 hours (one set at room temperature; one set at 37° C.) • 4. To prepared 96-well plates with 200 μL PNPP aliquoted, add 20 μL of each microcentrifuge tube to the corresponding well • 5.

skin = conditions: cited from earlier work
alkaline phosphatase [2] = target: T1, alkaline phosphatase; type: biochemical; set-up: purchased Sigma Aldrich, St. Louis, MO P0114 (original source); P7640 (second source, 'new AP' condition only)
alkaline phosphatase [3] = target: T1, alkaline phosphatase; type: biochemical; set-up: purchased Sigma Aldrich, St. Louis, MO P0114 (original source); P7640 (second source, 'new AP' condition only); conditions: for prediction based on OD405 values (FIG. 6D): original alkaline phosphatase 1:100 dilution; for optical density readings (FIG. 4): repeat, without discs
Description: Our next study focused on an in vitro method of detecting the potential of dermal corrosives to inhibit nonspecific phosphatases that may be released from the skin. We decided to test pure […] instead of relying on endogenous skin phosphatase. Alkaline phosphatase (Sigma Aldrich, St. Louis, MO) was purchased and suspended to make the reaction reagent (10,000 units). […] We note that the ratio used was 0.1 g/ml or 10% chemical-which is far in excess of any pharmaceutical applications. We further note that pharmaceutical enzyme inhibition tests, studies an use involve highly specific active site binding and these assays are conducted at ratios of micrograms-femtograms per ml. These studies are done at these ranges because these are the realistic concentrations for drug applications and therapeutics. […] So when a 50 Kg human consumes the tables, the tissues will be exposed at a 5 mg/50 kg=0.1 mg/kg=0.0000001 g/ml.
Next two quantitative methods were evaluated: 1) using the discs parts from our OptiSafe™ test method and 2) directly into the 24-well plate.
• 1. Alkaline phosphatase reaction reagent • a. Take 1 vial of AP, add 1 mL of PBS, mix by pipette/re-pipette 10 times • b. To a 50 mL conical tube, add 1 mL of the AP solution prepared above and 40 mL of PBS • 2. Prepare two 24-well plates (1 with discs, 1 without discs) • 3. […] Aliquot 200 μL PNPP and PBS
• 1. Plate 1 (No Discs) • a. Add 1.25 mL from the prepared PBS-AP conical tube to each well (11 wells) • b. Add 100 μL of the test material to the well, mix with the same pipette tip, dispose and repeat for the rest of the test materials • c. Wrap the plate in saran wrap and place into the container • 2. Plate 2 (Discs) • a. Configure the 11 discs in the plate so the plate cover is stable • b. Add 1.25 mL from the prepared PBS-AP conical tube to each well (11 wells) • c. Add 100 μL of the test material to the center of the disc and repeat for the rest of the test materials • d. Put the plate cover on and place into the container • 3. […] Incubate for 1 hour
For the new study, the alkaline phosphatase was suspended in phosphate buffered saline (PBS) to make the reaction reagent. Then, 100 μL of the test chemical is added directly into the corresponding wells on a 24-well plate with 1.25 mL of alkaline phosphatase reaction reagent already aliquoted.
• 1. Alkaline phosphatase reaction reagent • a. Take 1 vial of AP, add 1 mL of PBS, mix by pipette/re-pipette 10 times • b. To a 50 mL conical tube, add 1 mL of the AP solution prepared above and 40 mL of PBS • 2. Prepare two 24-well plates • 3. […] Aliquot with 200 μL PNPP and PBS • 4. Prepare glass vials Repeat Procedure from Jan. […] 24-well plate • a. Add 1.25 mL from the prepared PBS-AP conical tube to each well (11 wells) • b. Add 100 μL of the test material to the well, mix with the same pipette tip, dispose and repeat for the rest of the test materials • c. Wrap the plate in saran wrap and place into the container • 2. […] To the prepared 96-well plate with 200 μL PNPP or PBS, add 20 μL from the 24-well plate • 4. Incubate for 1 hour • 5.
• 1. 24-well plate • a. Add 1.25 mL from the prepared PBS-AP conical tube to each well (11 wells) • b. Add 100 μL of the test material to the well, mix with the same pipette tip, dispose and repeat for the rest of the test materials • c. After 10 minutes, mix each well • 2.

[4] = test system: endogenous skin phosphatase; type: biochemical, porcine; conditions: optical density compared to the naïve condition
Experimental: Our next studies involved applying the test substance (500 μL) directly to the epidermis side of previously frozen porcine skin (Spear Products, Coopersburg, PA) that is placed in a holder that only exposes the epidermis side for 30 minutes, adding phosphate buffered saline (PBS) with added sodium azide (metabolic inhibitor that ensure no viable tissue), then aliquoting into cuvettes to read at an optical density of 300 nm. […] So, at the end of the initial studies described above, almost out of frustration, we tried to probe for released phosphatase activity using p-Nitrophenyl phosphate disodium salt (PNPP; Sigma Aldrich, St. Louis, MO) substrate solution to detect any presence of phosphatase.
• 1. Thaw 2 pieces of frozen porcine skin • a. Punch out as many skin discs and mount in holders • 2. Label cuvettes (3 for each chemical)
• 1. Add 500 μL of test chemical to holder; incubate at room temperate for 30 minutes • 2. After 30 minutes, add 2 mL of PBS-Azide to both the holder containing the test chemical; forcefully pipette and re-pipette 10 times • 3. From the holder, aliquot 400 μL into 3 cuvettes; forcefully pipette and re-pipette 3 times before dispensing into cuvettes
Skin corrosion by GHS Category 1 dermal corrosive chemicals results in the disintegration of the epidermis into the dermis.

porcine skin = conditions: R 1 and 2
Experimental: Our initial studies involved using fresh and frozen porcine skin “buttons”. These buttons were punched out of porcine skin (Spear Products, Cooopersburg, PA) using a […] biopsy punch tool. Three different kinds of skin buttons were prepared from fresh porcine skin, frozen porcine skin, and frozen porcine skin with the fatty layer removed. […] The next day, the tubes were taken out and vortexed and 500 μL of the solution was aliquoted into cuvettes to read at three different optical density wavelengths (OD190, OD290, OD300) to evaluate the best response.
• 1. Thaw 2 pieces of frozen porcine skin • 2. Punch out buttons: 24 buttons in each tube filled with 40 mL PBS-Azide
• 1. Plate layout for dosing:
• 1. Dose each tissue with 140 μL of test chemical • 2.
• 1. Take out of incubator and vortex pulse 3× • 2. Aliquot 500 μL to cuvette and read results at OD190, OD290, and OD300
There were three readings done at an optical density of 190, 290, and 300 nm to evaluate the best response. […] To address the variable exposure conditions, our next studies involved placing a larger porcine skin section into a holder that exposes only the epidermis side with no potential for test chemical exposure from the backside or through the sides.

[5] = 4 mL glass vials, 30 μL into 300 μL, 1:100, 4 hours room temperature, 3 mL PNPP 1 hour
[6] = skin, chemical lists of the protocols
[7] = 1:100, 20 μL into 180 μL, 0.5 mL microcentrifuge tubes, 4 hours RT, PNPP 60 min, 405 nm
[8] = average of R1-R3, 1:100, 20 μL into 180 μL, 4 hours RT, PNPP 60 min, 405 nm
[9] = original alkaline phosphatase 1:1, 18 hours room temperature
[10] = fresh porcine skin, 140 μL, 18 hours at 37° C. in PBS-Azide
[11] = frozen porcine skin with fat layer removed
[12] = 10-minute test chemical exposure
[13] = 18 hours 37° C., PNPP 1 hour, 405 nm

T1 sequence (P19111 20-506): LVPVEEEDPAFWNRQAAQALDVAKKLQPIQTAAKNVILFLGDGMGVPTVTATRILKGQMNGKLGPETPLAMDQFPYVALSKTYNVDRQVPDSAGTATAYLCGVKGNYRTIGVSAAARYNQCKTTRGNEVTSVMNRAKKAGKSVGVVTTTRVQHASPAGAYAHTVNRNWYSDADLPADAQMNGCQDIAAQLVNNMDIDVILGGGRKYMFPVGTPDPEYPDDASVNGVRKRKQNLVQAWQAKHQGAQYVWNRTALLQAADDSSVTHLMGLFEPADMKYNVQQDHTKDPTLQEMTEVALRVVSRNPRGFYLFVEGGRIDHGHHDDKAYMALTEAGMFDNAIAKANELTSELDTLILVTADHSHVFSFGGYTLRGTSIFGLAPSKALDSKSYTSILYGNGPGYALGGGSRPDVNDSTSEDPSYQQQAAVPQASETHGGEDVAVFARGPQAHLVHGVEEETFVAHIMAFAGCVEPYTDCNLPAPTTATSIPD

## Cc1ccc(C(C)C)cc1O
Alkaline phosphatase [1]; [5]
  OD405 readings (FIG. 11D): 3.444 and 3.465 and 3.398
skin; [6]
  in vivo GHS: Cat. 1B/1C
Alkaline phosphatase [2]; [7]
  A1-Results R1: 0.211
  A1-Results R3: 0.272
Alkaline phosphatase [2]; [5]
  OD405 readings (FIG. 11B): 1.990 and 1.926
Alkaline phosphatase [2]; [8]
  A1-Results AVG: 0.242
Alkaline phosphatase [2]; [9]
  prediction based on OD405 values (FIG. 6B): incorrectly predicted
Alkaline phosphatase [2]; original alkaline phosphatase 1:100 (100 units), 100 μL into 1 mL, 18 hours room temperature, PNPP 1 hour
  OD405 readings (FIG. 6D): 0.991 and 0.974 and 1.167

## C=CCCC=C [1,5-Hexadiene]
Alkaline phosphatase [1]
  OD405 reading (FIG. 7A): 1.702
  OD405 reading (FIG. 7B): 2.947
Alkaline phosphatase [2]; [7]
  A1-Results R1: 3.502
  A1-Results R3: 3.498
Alkaline phosphatase [2]; [8]
  A1-Results AVG: 3.496

## ClCCCCBr [1-Bromo-4-chlorobutane]
Alkaline phosphatase [1]
  OD405 reading (FIG. 9B): 0.799
Alkaline phosphatase [2]; [7]
  A1-Results R1: 3.387
  A1-Results R3: 3.502
Alkaline phosphatase [2]; [8]
  A1-Results AVG: 3.464

## CC(C)(C)c1ccccc1O [2-tert-Butylphenol]
Alkaline phosphatase [3]
  prediction based on OD405 values (FIG. 6D): correctly predicted
skin; rabbit, in vivo
  in vivo GHS: Cat. 1B/1C
Alkaline phosphatase [2]; [7]
  A1-Results R1: 0.437
  A1-Results R3: 0.607
Alkaline phosphatase [2]; [8]
  A1-Results AVG: 0.524
Alkaline phosphatase [2]; [9]
  prediction based on OD405 values (FIG. 6B): incorrectly predicted

## CC(=O)O [Acetic acid]
Alkaline phosphatase [3]
  optical density readings (FIG. 3B): 0.104 and 0.129 and 0.101
[4]
  percent of phosphatase measured (first reading): 19.1%
  percent of phosphatase measured (second reading): 18.6%
  percent of phosphatase measured, average: 18.9%
skin; rabbit, in vivo
  Corrosive: Yes
Alkaline phosphatase [2]
  A1-Results AVG: 0.096
  A1-Results R1: 0.096
  A1-Results R3: 0.096
  optical density readings (FIG. 3A): 0.106 and 0.102 and 0.103

## CN(C)CCCNCCCN [Dimethyldipropylenetriamine]
Porcine skin; [10]
  OD190: >3A
  OD290: 0.922 and 1.016
  OD300: 0.819 and 0.887
Porcine skin; [11]
  OD190: 0.610 and 0.594
  OD290: 0.238 and 0.170
  OD300: 0.162 and 0.118
Porcine skin; frozen porcine skin
  OD190: >3A
  OD290: 0.936 and 0.775
  OD300: 0.806 and 0.636
Alkaline phosphatase [3]; [12]
  10-minute PNPP incubation readings (FIG. 5A): 3.449 and 3.502 and 3.500
  18-hour PNPP incubation readings (FIG. 5D): 0.112 and 0.105 and 0.110
Alkaline phosphatase [3]; original alkaline phosphatase 1:10 dilution
  prediction based on OD405 values (FIG. 6C): mispredicted
Alkaline phosphatase [3]
  prediction based on OD405 values (FIG. 6D): correctly predicted
Alkaline phosphatase [3]; [13]
  optical density readings (FIG. 4): 0.132 and 0.128 and 0.127
Alkaline phosphatase [3]; with discs, 100 μL into 1.25 mL reaction reagent (10,000 units), 18 hours 37° C., PNPP 1 hour, 405 nm
  optical density readings (FIG. 3A): 0.152 and 0.159 and 0.140
[4]
  percent of phosphatase measured (first reading): 23.5%
  percent of phosphatase measured (second reading): 17.7%
  percent of phosphatase measured, average: 20.6%
skin; Table 2
  Corrosive: Yes
Alkaline phosphatase [2]; [7]
  A1-Results R1: 0.118
  A1-Results R3: 0.124
Alkaline phosphatase [2]; [12]
  1-hour PNPP incubation readings (FIG. 5B): 0.352 and 0.283 and 0.333
  4-hour PNPP incubation readings (FIG. 5C): 0.122 and 0.116 and 0.114
Alkaline phosphatase [2]; [8]
  A1-Results AVG: 0.121
Alkaline phosphatase [2]; without discs, 100 μL into 1.25 mL reaction reagent (10,000 units), 18 hours 37° C., PNPP 1 hour, 405 nm
  optical density readings (FIG. 3B): 0.138 and 0.176 and 0.133

## NCCO [Ethanolamine]
Alkaline phosphatase [3]
  optical density readings (FIG. 3B): 0.174 and 0.185 and 0.175
[4]
  percent of phosphatase measured (first reading): 20.1%
  percent of phosphatase measured (second reading): 19.6%
  percent of phosphatase measured, average: 19.9%
skin; rabbit, in vivo
  Corrosive: Yes
Alkaline phosphatase [2]
  optical density readings (FIG. 3A): 0.170 and 0.166 and 0.172

## CN(C)Cc1ccccc1 [N,N-Dimethylbenzylamine]
Alkaline phosphatase [1]
  OD405 reading (FIG. 9B): 0.587
  OD405 readings (FIG. 11D): 3.429 and 3.249 and 3.164
Alkaline phosphatase [2]
  A1-Results AVG: 3.240
  A1-Results R1: 3.265
  A1-Results R3: 3.230
  OD405 readings (FIG. 6D): 3.431 and 3.502 and 3.61
  OD405 readings (FIG. 11B): 3.360 and 3.238 and 3.273
  prediction based on OD405 values (FIG. 6B): incorrectly predicted

## [K+].[OH-] [Potassium hydroxide (10%)]
Alkaline phosphatase [3]
  prediction based on OD405 values (FIG. 6D): correctly predicted
Alkaline phosphatase [3]; [13]
  optical density readings (FIG. 4): 0.123 and 0.124
skin; [6]
  in vivo GHS: Cat. 1B (Category 1B (corrosive responses in at least one animal during exposure period of ≤1 hour))
Alkaline phosphatase [2]; [7]
  A1-Results R1: 0.118
  A1-Results R3: 0.112
Alkaline phosphatase [2]; [8]
  A1-Results AVG: 0.114
